Experiments:
Format in all cases: cell-based, human
[1] = system: resistant cell clones (SkMel28-R, 451Lu-R); test: real-time cell proliferation of BRAFi-resistant melanoma cells; conditions: both resistant cell clones; 10 μM PLX vs DMSO
Procedure: (§1) FIGS. 6A through 6H depict that KRASi Prevents Emergence of Resistance and KRAS Expression is Regulated Dynamically in Acquired Resistance to BRAFi. […] Asterisks indicate significant differences (p<0.05) as compared to according control (0 μM PLX). FIGS. 6E and 6F are exemplary Western blot images (FIG. 6E) depicting immunostaining of AKT, pAKT, ERK, pERK, and KRAS. Densitometric values (DM) are also shown, representing relative quantifications. Resistant cell lines 451Lu-R and SkMel28-R were treated with 0, 5, or 10 μM PLX for 8 hours, and according summarized quantification of KRAS protein expression (n=3, FIG. 6F).
FIGS. 7A through 7I present KRAS Inhibition Re-sensitizes BRAF Inhibitor Resistant Cells for Inhibition of Proliferation and Induction of Apoptosis. […] show real-time cell proliferation (exemplary proliferation curve depicted in FIG. 6A, summarized slopes of proliferation curves depicted in FIG. 6B) of PLX-resistant cells treated with si-KRAS (KR) or control si-RNA (CTR), respectively, in combination with 5 or 10 μM PLX. FIGS. 7C and 7D show real-time cell proliferation (exemplary proliferation curve depicted in […], summarized slopes of proliferation curves depicted in FIG. 7D) of PLX-resistant cells treated with Deltarasin (DR) or DMSO, respectively, in combination with 5 or 10 μM PLX, according to FIGS. 7A and 7B. […]

Mel Im cells [2] = test: FACS analysis of apoptosis (Annexin / propidium iodide)
Text: (§2) FIGS. 4A through 4H depict that small Molecule KRAS Inhibition Reduces Proliferation and Induces Apoptosis in Melanoma. FIGS. 4A and 4B show proliferation (slope of cell index) of Mel Juso (FIG. 4A) and Mel Im (FIG. 4B) cells treated with DMSO and different concentrations of the KRAS small molecule inhibitor Deltarasin (DR). The cell index as dimensionless parameter for cell proliferative ability was used to determine the half maximal inhibitory concentration (IC50, small graphs) of DR. […] FIG. 4D illustrates exemplary images of different melanoma cell lines (Mel Im, Mel Juso and Mel Ei) treated with 5 μM DR or 5 μM DMSO, respectively, for 24 hours. FIGS. 4E and 4F show images of fibroblast cell lines derived from two different donors (F1, F2) and melanocytes (NHEM) treated DR (20 μM, 48 hours) or DMSO (FIG. 4E), and lactate dehydrogenase (LDH) quantification (FIG. 4F) in cell supernatants (optic density, OD) of NHEM after treatment with low dose DMSO, DR (5 μM), and DR (10 μM), respectively.
(§3) FIGS. 5A through 5D show time-dependent measurement of colony diameters (exemplary data in top panels) in three-dimensional, anchorage-independent “colony-forming” assays (FIGS. 5A and 5B: Mel Im, FIGS. 5C and 5D: Mel Juso). Exemplary Images (middle) and corresponding quantification of colony diameters (bottom panels, summarized data of n=3 experiments at day 19 after seeding) are also depicted. Treatments were performed in four different groups (10 μM DMSO, 5 μM Deltarasin=DR, M PLX-4032=PLX (vemurafenib), or combination of 10 μM PLX+[…]). Effects on i) colony formation (FIGS. 5A and 5C, treatment at day 1) and ii) proliferation of pre-formed colonies (FIGS. 5B and 5D, treatment at day 7 and 13) were analyzed. […] FIG. 5F show images of PLX-primary resistant Mel Juso cells treated with DMSO, DR (5 μM), high dose PLX (20 μM) and a combination of 5 μM DR+10 μM PLX for 24 hours. […] Cells were treated for 5 hours with DMSO, 5 μM Deltarasin (DR), 10 μM PLX, or a combination of 10 μM PLX and 5 μM DR. According to exemplary images for Annexin and propidium iodide (PI) staining are depicted for Mel Im. (FIG. 5H) Mel Im and Mel Juso were transfected with control si-RNA (si-CTR) or with si-KRAS (si-KR). Two subgroups (blue and red) were additionally treated with 10 μM PLX (Vemurafenib) for 24 hours, with subsequent flow cytometric quantification of tumor cell apoptosis according to FIG. 5G. Exemplary images for Annexin and propidium iodide (PI) staining are depicted for Mel Im.

Mel Juso cells [3] = test: as above
Text: as §2, §3

Mel Juso cells [4] = test: ERK-activation in BRAFi primary resistant cells; conditions: PLX
451Lu-wt = test: cell proliferation (slope of cell index); conditions: 10 μM PLX vs DMSO
Htz19 melanoma cells = test: FACS analysis of apoptosis; conditions: PLX 24 hours, alone or combined with RNAi-mediated KRAS knockdown
SkMel28-wt = test: cell proliferation (slope of cell index); conditions: 10 μM PLX vs DMSO
Procedure: as §1

Mel Im cells [5] = test: long-term treatment, emergence of surviving tumor cells and drug resistance; conditions: 21 days, PLX increasing doses up to 20 μM, or 10 μM PLX + 5 μM DR
Text: as §2
FIGS. 6A through 6H depict that KRASi Prevents Emergence of Resistance and KRAS Expression is Regulated Dynamically in Acquired Resistance to BRAFi. […] Asterisks indicate significant differences (p<0.05) as compared to according control (0 μM PLX). […] Densitometric values (DM) are also shown, representing relative quantifications. […]

Mel Juso cells [6] = test: three-dimensional, anchorage-independent colony-forming assay; conditions: Mel Juso (BRAFi primary resistant); DR 5 μM, PLX 10 μM, alone or combined
Text: FIGS. 5A through 5D show time-dependent measurement of colony diameters (exemplary data in top panels) in three-dimensional, anchorage-independent “colony-forming” assays (FIGS. 5A and 5B: Mel Im, FIGS. 5C and 5D: Mel Juso). Exemplary Images (middle) and corresponding quantification of colony diameters (bottom panels, summarized data of n=3 experiments at day 19 after seeding) are also depicted. […] Effects on i) colony formation (FIGS. 5A and 5C, treatment at day 1) and ii) proliferation of pre-formed colonies (FIGS. 5B and 5D, treatment at day 7 and 13) were analyzed. […] Cells were treated for 5 hours with DMSO, 5 μM Deltarasin (DR), 10 μM PLX, or a combination of 10 μM PLX and 5 μM DR. […] (FIG. 5H) Mel Im and Mel Juso were transfected with control si-RNA (si-CTR) or with si-KRAS (si-KR). Two subgroups (blue and red) were additionally treated with 10 μM PLX (Vemurafenib) for 24 hours, with subsequent flow cytometric quantification of tumor cell apoptosis according to FIG. 5G.

[7] = system: resistant cell lines 451Lu-R and SkMel28-R; test: Western blot of AKT, pAKT, ERK, pERK and KRAS
Procedure: as §1
After 48 hours of transfection with either control si-RNA (CTR) or si-KRAS (KR), cells were treated with different concentrations of PLX (0-10 μM). Data are represented as mean±SD in FIGS. 6A-6G and as mean±SEM in FIG. 6H. Ns: non-significant. *: p<0.05.

[8] = system: KRAS mRNA in SkMel28-R and 451Lu-R cells; test: qRT-PCR of KRAS mRNA expression after PLX treatment; conditions: resistant and some non-resistant melanoma cell clones; 24-hour and 48-hour PLX treatment
Procedure: as §1

[9] = 10 μM PLX 24 hours, alone (si-CTR) or combined with RNAi-mediated KRAS knockdown
[10] = 5 hours, 5 μM DR, 10 μM PLX or combination

## CCCS(=O)(=O)Nc1ccc(F)c(C(=O)c2c[nH]c3ncc(-c4ccc(Cl)cc4)cc23)c1F [PLX]
[1]
  cell proliferation: enhanced
Mel Im cells [2]; [9]
  apoptosis (FACS): slightly enhanced apoptosis
Mel Im cells [2]; [10]
  apoptosis (FACS), short treatment: insufficient to induce apoptosis
Mel Juso cells [3]; [9]
  apoptosis (FACS): did not cause apoptosis
Mel Juso cells [3]; [10]
  apoptosis (FACS), short treatment: insufficient to induce apoptosis
Mel Juso cells [4]
  ERK-activation: enhanced
451Lu-wt
  cell proliferation: inhibited proliferation
Htz19 melanoma cells
  apoptosis (FACS): slightly enhanced apoptosis
SkMel28-wt
  cell proliferation: inhibited proliferation
Mel Im cells [5]
  emergence of surviving tumor cells (acquired resistance): survival of a moderate proportion of tumor cells
Mel Juso cells [6]
  three-dimensional colony formation and colony proliferation: enhanced
[7]; PLX 0, 5 or 10 μM
  ERK activation (pERK): increased ERK activation
[7]; PLX doses
  activation of AKT (pAKT/AKT): dose-dependently increased
[7]; eight hours, 0, 5 or 10 μM PLX
  KRAS protein expression (Western blot): dose-dependently enhanced
[8]
  KRAS mRNA expression (qRT-PCR): dose-dependent slight dynamic alteration

— patent US20200147058A1, “KRAS INHIBITOR FOR USE IN TREATING CANCER” (Friedrich-Alexander-Universitat Erlangen-Numberg, priority 2016, published 2020)
